Data as given in US8362203B2, “Non-natural peptides as models for the development of antibiotics” (priority 2009, dated 2013).
“Also recorded” adds a separate entry of the source. Marks after values point to notes of the source that are not given here. Strand notation (5' to 3'): a small letter for the sugar, then the base; units joined by * are phosphorothioate-linked, units joined directly phosphodiester-linked; [ ] holds rarer units or linkages, { } end groups; capitals alone tell only the bases. [m2G] = N2-methylguanosine (ribo); [5mC] = 5-methylcytosine; r = 2'-OH (RNA)

Legend:
[1] = test system: GFP translation (Escherichia coli S30 extracts); test: Coupled in vitro transcription-translation inhibition assay (GFP fluorescence); type: biochemical; conditions: for inhibitory effect on coupled in vitro transcription-translation (in words): peptide 300 μM to 2 mM, GFP fluorescence 0 min to 2 h, 37° C.
Experimental: Peptides with high frequency in the screening against wild-type h31 were synthesized. The peptides (DIRTQRE (SEQ ID NO: 6), CVRPFAL (SEQ ID NO: 4), FVRPFAL (SEQ ID NO: 7), TLWDLIP (SEQ ID NO: 3) and TYLPWPA (SEQ ID NO: 2)), were synthesized and their sequences were determined from the phage display experiments. The inhibitory effects of these peptides on cellular processes were determined by in vitro coupled transcription-translation inhibition assay. The PURExpress™ in vitro protein synthesis kit # E6800S from New England Biolabs (NEB) was used for this purpose. This kit contains all of the necessary components for the transcription and translation, except for the DNA template. The amounts of reagents from the kit were added according to the NEB manual. We used a DNA template for GFP (pRSETEmGFP plasmid) at a concentration of 10 μg/ml in a 15 μl of reaction volume. Different concentrations of peptides were added, ranging from 300 μM to 2 mM. The DNA template was added only after mixing of the peptides or streptomycin so that they can bind to their target region. For the control, streptomycin was added at a final concentration of 300 μM. The reaction was incubated in 384-well, Costar, clear-well, black plates and in situ incubated at 37° C. in the fluorometer. The amount of GFP translation was monitored at different intervals of time from 0 min to 2 h by fluorescence (excitation at 487 nm, emission at 509 nm) using a Gemini XPS microplate spectrofluorometer, (Molecular Devices).
A cell-free translation assay was used to test the inhibitory effects of the peptides on protein synthesis. The pRSETEmGFP plasmid that was used as template has an EmGFP gene under control of the T7 promoter (FIG. 48). Upon transcription with T7 polymerase, EmGFP mRNA was formed and undergoes translation by ribosomes to produce the green fluorescent protein (GFP). The degree of inhibition on transcription and translation due to the presence of peptide could be determined by measuring the level of GFP fluorescence. Escherichia coli S30 extracts were used, which contained all of the necessary factors and supplements for translation. The rate of GFP translation in the presence or absence of peptide was measured at different time intervals.

[2] = UV thermal melting of helix 31 RNA hairpin constructs (van't Hoff analysis); type: physicochemical; conditions: for ΔG° 50: standard error est. 3% (±0.2 kcal/mol)
Experimental: Thermal melting studies. The absorbance versus temperature profiles were obtained on an Aviv 14DS UV-vis spectrophotometer with a five-cuvette thermoelectric controller. Microcuvettes with two different pathlengths, 0.1 and 0.2 cm (60 and 120 μL volumes, respectively), were employed. Each set of measurements was done in triplicate. The buffer used in each experiment contained 15 mM NaCl, 20 mM sodium cacodylate, and 0.5 mM Na2EDTA (pH 7.0) unless otherwise noted. Each oligomer was dissolved in a specific volume to yield an absorbance reading just below 2.0 in a 0.1 cm pathlength cuvette. The RNA concentrations were determined from the absorbance values (260 nm) at 95° C. The absorbance data were collected at […] from 0 to 95° C. with a constant heating rate of 0.5° C./min. Thermodynamic parameters were obtained from the absorbance versus temperature profiles using the MELTWIN v. 3.5 melting curve program.^1 This program performs a van't Hoff analysis, assuming a two-state model for the transition between a native and a denatured (random coil) structure of a hairpin.
Absorbance versus temperature profiles (melting curves) were obtained at pH 7.0 for all four RNA constructs. They were analyzed in terms of ΔG°37, ΔG°50, ΔH°, ΔS°, and melting temperature (Tm),^1, 2 Representative normalized UV melting curves of the modified RNAs compared to the unmodified RNA, taken in 15 mM NaCl, 20 mM sodium cacodylate, 0.5 mM Na2EDTA (pH 7.0), are shown in FIG. 11.
The curves represent an average of five sets of data at different concentrations of RNA obtained from a five-cuvette thermoelectric controller. The melting curves for the unmodified RNA (ECh31UNMOD, blue line in panels A-C) are compared to those for the modified RNAs (pink lines: (A) ECh31WT, (B) ECh31M2G, and (C) ECh31M5C). All of the melting curves were normalized at 95° C. and absorbance measurements were taken at 260 nm (see materials and methods, section 4.5).
The melting curves are biphasic for all four RNAs (FIG. 12) with transitions at 0 to 35° C. and 40 to 80° C. […] The higher melting transitions were concentration independent, consistent with unimolecular unfolding of the hairpin structure.^3 The corresponding thermodynamic parameters for the four RNAs are given in Table 2. […] The observed order of stability of the RNAs is ECh31UNMOD>ECh31M2G>ECh31M5C>ECh31WT^a A conservative estimate of the standard error for ΔG°50 is 3% (.+−.0.2 kcal/mol)^4
The RNA samples were analyzed as five different dilutions per experiment and UV melts were also performed in triplicate for each construct. AU0-AU4 represent profiles corresponding to different dilutions of each RNA taken in 15 mM NaCl, 20 mM sodium cacodylate, 0.5 mM Na2EDTA at pH 7.0. Experiments in K^+ buffer (15 mM KCl, 20 mM cacodylic acid, 20 mM Tris [basic form], 0.5 mM Na2EDTA, pH 7.0) gave similar results (Table 3, FIG. 13).
Thermal melting studies. Preliminary experiments were performed with the unmodified human analogue (HSh31UNMOD) containing an additional G-C base-pair (denoted by g-c) similar to that of the ECh31UNMOD construct (FIG. 28).
Thermal melting studies on the human unmodified helix 31 containing the altered sequence. The absorbance versus temperature profiles were obtained at pH 7.0 in low salt conditions (35 mM Na^+) for the new analogue of helix 31 (HSh31ECstem) and analyzed in terms of the melting temperature (Tm), Δ°, ΔS° and ΔG°37. The melting curve for HSH31ECSTEM (green color curve) is biphasic with transitions at 0-35 and 45-80° C. (FIG. 37). The higher melting transition is concentration independent, consistent with unimolecular unfolding of a hairpin structure.

[3] = 15 mM NaCl, 20 mM sodium cacodylate, 0.5 mM Na2EDTA, pH 7.0
[4] = Table 2, 15 mM NaCl, 20 mM sodium cacodylate, 0.5 mM Na2EDTA, pH 7.0
[5] = Tables 3-5, NaCl buffer (15 mM NaCl, 20 mM sodium cacodylate, 0.5 mM EDTA, pH 7.0)
[6] = KCl buffer (15 mM KCl, 20 mM cacodylic acid, 20 mM Tris, 0.5 mM Na2EDTA, pH 7.0)

Compound | inhibitory effect on coupled in vitro transcription-translation (in words) [1] | ΔG° 50 [2, 3] | Tm [2, 4] [°C] | ΔG°37 [2, 4] [kcal/mol] | ΔH° [2, 4] [kcal/mol] | ΔS° [2, 4] [cal/K · mol] | Tm [2, 5] [°C] | ΔG°37 [2, 5] [kcal/mol] | ΔH° [2, 5] [kcal/mol] | ΔS° [2, 5] [cal/K · mol] | further results
[H]/N=C(/N)N[C@H]1[C@H](O)[C@@H](O)[C@H](O[C@@H]2O[C@@H](C)[C@](O)(C=O)[C@H]2O[C@@H]2O[C@@H](CO)[C@H](O)[C@@H](O)[C@@H]2NC)[C@@H](N/C(N)=N\[H])[C@@H]1O [Streptomycin, reference compound] | – | – | – | – | – | – | – | – | – | – | GFP translation with positive control ([1]; 300 μM): no GFP translation was observed
CVRPFAL [compound 15, 7-mer peptide selected by phage display against helix 31 RNA] | greater inhibitory effects on in vitro protein synthesis than other peptides | – | – | – | – | – | – | – | – | – | inhibitory effect on coupled in vitro transcription-translation (in words) ([1]; listed as CVRPFAL): best inhibitory effects; also recorded: strong inhibitory effects
DIRTQRE [compound 18, 7-mer peptide selected by phage display against helix 31 RNA] | did not inhibit transcription or translation even up to 2 mM; also recorded: least inhibitory effect | – | – | – | – | – | – | – | – | – | –
ECh31M2G: 18-nt helix 31 RNA hairpin of E. coli 16S rRNA with m2G966 (rGrUrUrCrGrArUr[m2G]rCrArArCrGrCrGrArArC) | – | −0.7^a kcal/mol | 56 | -2.4 ± 0.1 | -41.9 ± 1.1 | −127.5 ± 3.2 | – | – | – | – | –
ECh31M5C: 18-nt helix 31 RNA hairpin of E. coli 16S rRNA with m5C967 (GUUCGAUGCAACGCGAAC; RNA, [5mC] at 9, all phosphodiester, methylation of C not given here) | – | −0.6^a kcal/mol | 55 | -2.2 ± 0.1 | -40.5 ± 0.9 | −123.3 ± 3.1 | – | – | – | – | –
ECh31UNMOD: 18-nt unmodified RNA hairpin representing helix 31 (U960-A975) of E. coli 16S rRNA (GUUCGAUGCAACGCGAAC; unmodified RNA) | – | −0.9^a kcal/mol | 57 | -2.6 ± 0.1 | -44.1 ± 1.0 | −133.8 ± 3.0 | 57 | -2.6 ± 0.1 | -44.1 ± 1.0 | −133.8 ± 3.0 | –
ECh31WT: doubly modified (m2G966, m5C967) h31 analogue, wild-type sequence of E. coli 16S rRNA helix 31 (GUUCGAUGCAACGCGAAC; RNA, [m2G] at 8, [5mC] at 9, all phosphodiester, methylation of C not given here) | – | −0.5^a kcal/mol | 56 | -2.1 ± 0.1 | -37.5 ± 2.2 | −114.4 ± 5.8 | 55.5 | -2.10 ± 0.07 | -37.26 ± 1.2 | −113.37 ± 3.6 | Tm [2, 6]: 54.7 °C; ΔG°37 [2, 6]: -2.13 ± 0.03 kcal/mol; ΔH° [2, 6]: -39.37 ± 1.2 kcal/mol; ΔS° [2, 6]: −120.08 ± 3.8 cal/K · mol
FVRPFAL [compound 16, 7-mer peptide selected by phage display against helix 31 RNA] | best inhibitory effects; also recorded: strong inhibitory effects | – | – | – | – | – | – | – | – | – | –
HSh31UNMOD: unmodified human helix 31 RNA analogue with additional G-C base-pair (GUUUGACUCAACACGGGC; unmodified RNA) | – | – | – | – | – | – | 44 | -0.6 | -29.4 ± 1.6 | −92.8 ± 5.4 | –
TLWDLIP [compound 14, 7-mer peptide selected by phage display against helix 31 RNA] | greater inhibitory effects on in vitro protein synthesis than other peptides | – | – | – | – | – | – | – | – | – | –
